Data: US20250051332A1 (priority 2022, published 2025)
pEC50, pKi: −log10 of the molar value.

Columns and labels:
κOR [1] = biological target: T1, κOR (Homo sapiens, UniProt P41145); assay: Competitive radioligand binding with [3H]U69,593; conditions: radioligand displacement assay
T1 construct: host or cells: CHO-K1

μOR [2] = biological target: T2, μOR (Homo sapiens, UniProt P35372); assay: Competitive radioligand binding with [3H]DAMGO; conditions: radioligand displacement assay
T2 construct: host or cells: CHO-K1

MOR = MOR (Homo sapiens, UniProt P35372); assay: PDSP radioligand displacement binding; conditions: average of three independent trials
Alpha1B = biological target: T3, Alpha1B (Homo sapiens, UniProt P35368); assay: PDSP radioligand displacement binding; conditions: average of three independent trials
T3 sequence (P35368 1-520): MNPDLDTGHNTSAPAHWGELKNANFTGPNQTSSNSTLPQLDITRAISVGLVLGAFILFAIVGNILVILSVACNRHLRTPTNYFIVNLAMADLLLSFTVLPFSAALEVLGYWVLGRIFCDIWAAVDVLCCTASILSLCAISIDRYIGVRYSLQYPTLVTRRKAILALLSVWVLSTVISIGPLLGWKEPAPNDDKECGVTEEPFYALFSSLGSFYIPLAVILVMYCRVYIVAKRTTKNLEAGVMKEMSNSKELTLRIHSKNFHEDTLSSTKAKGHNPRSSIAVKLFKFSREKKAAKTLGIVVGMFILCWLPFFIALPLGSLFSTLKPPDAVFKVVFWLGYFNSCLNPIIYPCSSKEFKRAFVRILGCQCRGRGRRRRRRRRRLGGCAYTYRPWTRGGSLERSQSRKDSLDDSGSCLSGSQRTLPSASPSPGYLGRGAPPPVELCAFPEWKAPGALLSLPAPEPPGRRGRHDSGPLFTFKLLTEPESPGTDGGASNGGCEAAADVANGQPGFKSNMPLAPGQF

HERG = HERG (Homo sapiens, UniProt Q12809); assay: PDSP radioligand displacement binding; conditions: average of three independent trials
CXCR7 = CXCR7 (Homo sapiens, UniProt P25106); assay: CXCR7 agonism follow-up of the PRESTO-Tango screen; assay type: cell-based; conditions: weak agonist compared to the CXCR7 agonist VUF11207
Alpha2A = biological target: T4, Alpha2A (Homo sapiens, UniProt P08913); assay: PDSP radioligand displacement binding; conditions: average of three independent trials
T4 sequence (P08913 1-465): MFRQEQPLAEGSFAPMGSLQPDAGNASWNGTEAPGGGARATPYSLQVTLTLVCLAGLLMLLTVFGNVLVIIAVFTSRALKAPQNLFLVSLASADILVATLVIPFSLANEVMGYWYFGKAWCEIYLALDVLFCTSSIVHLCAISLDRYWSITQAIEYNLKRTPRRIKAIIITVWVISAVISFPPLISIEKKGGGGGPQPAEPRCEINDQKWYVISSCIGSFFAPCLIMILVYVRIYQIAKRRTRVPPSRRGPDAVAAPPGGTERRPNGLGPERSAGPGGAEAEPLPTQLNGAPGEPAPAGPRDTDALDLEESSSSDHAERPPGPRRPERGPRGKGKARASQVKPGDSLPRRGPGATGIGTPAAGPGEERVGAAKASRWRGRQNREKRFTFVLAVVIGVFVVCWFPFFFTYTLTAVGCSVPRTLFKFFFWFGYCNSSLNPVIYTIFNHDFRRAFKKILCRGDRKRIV

μOR [3] = biological target: T2, μOR; assay: cell-based; assay type: cell-based
KOR = KOR (Homo sapiens, UniProt P41145); assay: PDSP radioligand displacement binding; conditions: average of three independent trials
5-HT3 = biological target: T5, 5-HT3 (Homo sapiens, UniProt P46098); assay: PDSP radioligand displacement binding; conditions: average of three independent trials
T5 sequence (P46098 24-478): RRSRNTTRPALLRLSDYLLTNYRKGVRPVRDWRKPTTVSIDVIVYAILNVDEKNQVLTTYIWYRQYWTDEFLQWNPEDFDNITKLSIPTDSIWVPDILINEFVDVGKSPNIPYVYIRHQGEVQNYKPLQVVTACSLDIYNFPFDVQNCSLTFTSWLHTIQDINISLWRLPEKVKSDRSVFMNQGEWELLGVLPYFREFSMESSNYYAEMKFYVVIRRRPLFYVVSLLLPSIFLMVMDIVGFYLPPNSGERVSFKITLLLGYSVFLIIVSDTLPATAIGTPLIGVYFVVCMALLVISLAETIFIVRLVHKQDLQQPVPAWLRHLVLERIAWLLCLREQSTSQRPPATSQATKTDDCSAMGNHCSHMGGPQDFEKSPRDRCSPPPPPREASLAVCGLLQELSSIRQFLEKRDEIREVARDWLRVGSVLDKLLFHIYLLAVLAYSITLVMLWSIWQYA

κOR [4] = biological target: T1, κOR; assay: cell-based; assay type: cell-based
NET = NET (Homo sapiens, UniProt P23975); assay: PDSP radioligand displacement binding; conditions: average of three independent trials

Compound	pKi (κOR [1])	pKi (μOR [2])	Ki (nM) at MOR (MOR)	Ki (Alpha1B)	Ki (HERG)	concentration at which CXCR7 is activated (CXCR7)	Ki (Alpha2A)	agonist activity at the μOR (μOR [3])	μOR cAMP inhibition Emax ± SEM (%) (μOR [3])	μOR cAMP inhibition pEC50 ± SEM (μOR [3])	pEC50 (μOR [3]; read-out: μOR cAMP inhibition EC50)	Ki (KOR)	Ki (5-HT3)	κOR cAMP inhibition pEC50 ± SEM (κOR [4])	pEC50 (κOR [4]; read-out: κOR cAMP inhibition EC50)	Ki (NET)	Ki (nM) at NET (NET)
C/C=C1/CN2CC[C@]34C(=C(C(=O)OC)[C@H]1C[C@H]23)Nc1ccc(I)cc14 [Compound 3, 10-Iodoakuammicine]	10.06	5.44	— (“—” indicates compound produced less than 50% displacement of radioligand in primary binding screen at 10 μM.)	2020 nM	1100 nM	> 3 µM	732 nM	only weakly activated the μOR	<10%	4.4 ± 1.9	4.39	1 nM	384 nM	8.2 ± 0.1	8.24	3440 nM	
C/C=C1/CN2CC[C@]34C(=C(C(=O)OC)[C@H]1C[C@H]23)Nc1ccc(Br)cc14 [Compound 2, 10-Bromoakuammicine]			— (“—” indicates compound produced less than 50% displacement of radioligand in primary binding screen at 10 μM.)	2880 nM	1340 nM		> 10000 nM	only weakly activated the μOR					210 nM				— (“—” indicates compound produced less than 50% displacement of radioligand in primary binding screen at 10 μM.)
